{"source": "patent US4064169A", "about": "“Bis-(meta-amidinophenoxy)-compounds and pharmacologically acceptable acid addition salts thereof” (Eisai Co., Ltd., priority 1976, dated 1977)", "assay_type_in_all_cases": "cell-based", "key": {"[1]": {"test_system": "Candida albicans IFM 4080", "assay": "Antifungal Test (agar dilution M.I.C.)", "settings": "for MIC: Candida albicans", "procedure": "(§1) Respective agar plates were prepared by dissolving compounds under test in aseptic water to make a two fold dilution series, taking each 1 milliliter of said diluted solutions and 9 ml of Sabouraud medium into a petri dish, and sufficiently admixing the same.\n(§2) On the other hand, an inoculum was prepared by cultivating an examined fungus (microorganism) on the Sabouraud slant medium and suspending two loopful of the incubated fungus in 10 ml of sterilized physiological saline water.\n(§3) One loopful of the inoculum was streaked on the above-mentioned agar plate. After the agar plate was incubated at a defined temperature for a predetermined period of time to determine the minimal inhibitory concentration (M.I.C.).\n(§4) Incubation temperature:\nIncubation time: 3 days (72 hours) and\nactivity incubation conditions:\nIncubation time 3 days (72 hours)\nIncubation time 7 days (168 hours)\nIncubation time 2 days (48 hours)"}, "[2]": {"test_system": "Candida guilliermondii AHU 3654", "assay": "Antifungal Test (agar dilution M.I.C.)", "settings": "Meyerozyma guilliermondii, Table 1, 27° C.", "procedure": "as §1, §2, §3, §4\n(§5) Incubation time: 3 days (72 hours) and […]"}, "[3]": {"test_system": "Candida tropicalis AHU 3071", "assay": "Antifungal Test (agar dilution M.I.C.)", "settings": "Table 1, 27° C.", "procedure": "as §1, §2, §3, §4, §5"}, "[4]": {"test_system": "Candida ulitis AHU 3053", "assay": "Antifungal Test (agar dilution M.I.C.)", "settings": "Table 1, 27° C.", "procedure": "as §1, §2, §3, §4, §5"}, "[5]": {"test_system": "Cryptococcus neoformans", "assay": "Antifungal Test (agar dilution M.I.C.)", "settings": "Table 1, 27° C.", "procedure": "as §1, §2, §3, §4, §5"}, "[6]": {"test_system": "Saccharomyces cerevisiae", "assay": "Antifungal Test (agar dilution M.I.C.)", "settings": "Table 1, 27° C.", "procedure": "as §1, §2, §3, §4, §5"}, "[7]": {"test_system": "Candida albicans AHU 3656", "assay": "Antifungal test when a serum is added", "settings": "27° C, read-out: M.I.C. of serum added", "procedure": "as §1, §2, §3\n(§6) Minimal inhibitory concentration (M.I.C.) was determined by preparing the agar plate medium in the same manner of the preceding pharmacological test 1, except for the addition of the horse serum. The concentration of the component in the medium was finally corrected, so that it may amount to the concentration of the component when the horse serum was not added.\n(§7) Incubation temperature: […]"}, "[8]": {"test_system": "Candida albicans NAKAGAWA IFM 4017", "assay": "Antifungal test when a serum is added", "settings": "27° C, read-out: M.I.C. of serum added", "procedure": "as §1, §2, §3, §6, §7"}, "[9]": {"test_system": "Candida guilliermondii AHU 3654", "assay": "Antifungal test when a serum is added", "settings": "Meyerozyma guilliermondii, 27° C, read-out: M.I.C. of serum added", "procedure": "as §1, §2, §3, §6, §7"}, "[10]": {"test_system": "Candida utilis AHU 3053", "assay": "Antifungal test when a serum is added", "settings": "Williopsis jadinii, 27° C, read-out: M.I.C. of serum added", "procedure": "as §1, §2, §3, §6, §7"}, "[11]": {"test_system": "Cryptococcus neoformans", "assay": "Antifungal test when a serum is added", "settings": "27° C, read-out: M.I.C. of serum added", "procedure": "as §1, §2, §3, §6, §7"}, "[12]": {"test_system": "Trichomonas vaginalis", "assay": "Anti-trichomonal Test", "settings": "72 h, ASAMI medium containing 20% horse serum, 37° C., 3 days, read-out: minimal inhibitory concentration", "procedure": "The compound under test was dissolved in aseptic water, and filtered aseptically to prepare a two fold dilution series. Each 2.6 ml ASAMI medium containing 20% of the horse serum were respectively taken into small test tubes. Onto the medium, there were incubated 0.3 ml of the two fold dilution solution of the compounds and 0.1 ml of the suspension of the ASAMI medium of Trichomonas vaginalis which was cultured at 37° C. for 3 days respectively. Incubation was carried out at 37° C. for 3 days to determine the minimal inhibitory concentration."}, "[13]": {"test_system": "fungi of Table 4", "assay": "Antifungal test when a serum is added (summary)", "settings": "10% and 30% by volume horse serum", "procedure": "as §6"}, "[14]": {"settings": "168 h, 10 % horse serum, 7 days"}, "[15]": {"settings": "168 h, 30 % horse serum, 7 days"}}, "note": "Counter-ions that a name gives are not always drawn. Like-named read-outs stand apart in the source and are kept apart here."}
{"smiles": "N=C(N)c1cccc(OCC2CCC(COc3cccc(C(=N)N)c3)CC2)c1", "note": "(stereo not shown) [Compound A, 1,4-Bis-(m,m'-amidinophenoxymethyl)-cyclohexane-dihydrochloride]", "values": [{"measurement": "MIC", "setting": "[1]; IFM4080, 48 h, Table 3, 37° C., 2 days", "result": 0.8, "unit": "µg/mL"}, {"measurement": "MIC", "setting": "[1]; IFM4080, 72 h, Table 3, 27° C., 3 days", "result": 3.13, "unit": "µg/mL"}, {"measurement": "MIC", "setting": "[1]; IFM4080, 168 h, Table 3, 27° C., 7 days", "result": 6.25, "unit": "µg/mL"}, {"measurement": "M.I.C.", "setting": "[1]; Table 1, 27° C., 3 days incubation", "result": 3.13, "unit": "µg/mL"}, {"measurement": "M.I.C.", "setting": "[1]; Table 1, 27° C., 7 days incubation", "result": 6.25, "unit": "µg/mL"}, {"measurement": "M.I.C.", "setting": "[1]; Table 3, 37° C., 3 days", "result": 3.13, "unit": "µg/mL"}, {"measurement": "MIC", "setting": "[2]; AHU3654, 72 h, 3 days incubation", "result": 25, "unit": "µg/mL"}, {"measurement": "MIC", "setting": "[2]; AHU3654, 168 h, 7 days incubation", "result": 25, "unit": "µg/mL"}, {"measurement": "MIC", "setting": "[3]; AHU3071, 72 h, 3 days incubation", "result": 3.13, "unit": "µg/mL"}, {"measurement": "MIC", "setting": "[3]; AHU3071, 168 h, 7 days incubation", "result": 3.13, "unit": "µg/mL"}, {"measurement": "MIC", "setting": "[4]; AHU3053, 72 h, 3 days incubation", "result": 3.13, "unit": "µg/mL"}, {"measurement": "MIC", "setting": "[4]; AHU3053, 168 h, 7 days incubation", "result": 3.13, "unit": "µg/mL"}, {"measurement": "MIC", "setting": "[5]; 72 h, 3 days incubation", "result": 3.13, "unit": "µg/mL"}, {"measurement": "MIC", "setting": "[5]; 168 h, 7 days incubation", "result": 3.13, "unit": "µg/mL"}, {"measurement": "MIC", "setting": "[6]; 72 h, 3 days incubation", "result": "< 1.56", "unit": "µg/mL"}, {"measurement": "MIC", "setting": "[6]; 168 h, 7 days incubation", "result": "< 1.56", "unit": "µg/mL"}, {"measurement": "MIC", "setting": "[7]; AHU3656, 72 h, 0 % horse serum, 3 days", "result": 3.13, "unit": "µg/mL"}, {"measurement": "MIC", "setting": "[7]; AHU3656, 72 h, 10 % horse serum, 3 days", "result": 25, "unit": "µg/mL"}, {"measurement": "MIC", "setting": "[7]; AHU3656, 72 h, 30 % horse serum, 3 days", "result": 25, "unit": "µg/mL"}, {"measurement": "MIC", "setting": "[7]; AHU3656, 168 h, 0 % horse serum, 7 days", "result": 6.25, "unit": "µg/mL"}, {"measurement": "MIC", "setting": "[7]; AHU3656, 168 h, 10 % horse serum, 7 days", "result": 25, "unit": "µg/mL"}, {"measurement": "MIC", "setting": "[7]; AHU3656, 168 h, 30 % horse serum, 7 days", "result": 25, "unit": "µg/mL"}, {"measurement": "MIC", "setting": "[8]; 72 h, 0 % horse serum, 3 days", "result": 3.13, "unit": "µg/mL"}, {"measurement": "MIC", "setting": "[8]; 72 h, 10 % horse serum, 3 days", "result": 25, "unit": "µg/mL"}, {"measurement": "MIC", "setting": "[8]; 72 h, 30 % horse serum, 3 days", "result": 6.25, "unit": "µg/mL"}, {"measurement": "MIC", "setting": "[8]; 168 h, 0 % horse serum, 7 days", "result": 3.13, "unit": "µg/mL"}, {"measurement": "MIC", "setting": "[8]; [14]", "result": 25, "unit": "µg/mL"}, {"measurement": "MIC", "setting": "[8]; [15]", "result": 6.2, "unit": "µg/mL"}, {"measurement": "MIC", "setting": "[9]; AHU3654, 72 h, 0 % horse serum, 3 days", "result": 25, "unit": "µg/mL"}, {"measurement": "MIC", "setting": "[9]; AHU3654, 72 h, 10 % horse serum, 3 days", "result": 25, "unit": "µg/mL"}, {"measurement": "MIC", "setting": "[9]; AHU3654, 72 h, 30 % horse serum, 3 days", "result": 50, "unit": "µg/mL"}, {"measurement": "MIC", "setting": "[9]; AHU3654, 168 h, 0 % horse serum, 7 days", "result": 25, "unit": "µg/mL"}, {"measurement": "MIC", "setting": "[9]; AHU3654, 168 h, 10 % horse serum, 7 days", "result": 25, "unit": "µg/mL"}, {"measurement": "MIC", "setting": "[9]; AHU3654, 168 h, 30 % horse serum, 7 days", "result": 50, "unit": "µg/mL"}, {"measurement": "MIC", "setting": "[10]; AHU3053, 72 h, 0 % horse serum, 3 days", "result": 3.13, "unit": "µg/mL"}, {"measurement": "MIC", "setting": "[10]; AHU3053, 72 h, 10 % horse serum, 3 days", "result": 3.13, "unit": "µg/mL"}, {"measurement": "MIC", "setting": "[10]; AHU3053, 72 h, 30 % horse serum, 3 days", "result": "< 0.8", "unit": "µg/mL"}, {"measurement": "MIC", "setting": "[10]; AHU3053, 168 h, 0 % horse serum, 7 days", "result": 3.13, "unit": "µg/mL"}, {"measurement": "MIC", "setting": "[10]; AHU3053, 168 h, 10 % horse serum, 7 days", "result": 6.25, "unit": "µg/mL"}, {"measurement": "MIC", "setting": "[10]; AHU3053, 168 h, 30 % horse serum, 7 days", "result": "< 0.8", "unit": "µg/mL"}, {"measurement": "MIC", "setting": "[11]; 72 h, 0 % horse serum, 3 days", "result": 3.13, "unit": "µg/mL"}, {"measurement": "MIC", "setting": "[11]; 72 h, 10 % horse serum, 3 days", "result": 6.25, "unit": "µg/mL"}, {"measurement": "MIC", "setting": "[11]; 72 h, 30 % horse serum, 3 days", "result": 12.5, "unit": "µg/mL"}, {"measurement": "MIC", "setting": "[11]; 168 h, 0 % horse serum, 7 days", "result": 3.13, "unit": "µg/mL"}, {"measurement": "MIC", "setting": "[11]; [14]", "result": 12.5, "unit": "µg/mL"}, {"measurement": "MIC", "setting": "[11]; [15]", "result": 12.5, "unit": "µg/mL"}, {"measurement": "MIC", "setting": "[12]", "result": 200, "unit": "µg/mL"}, {"measurement": "antifungal activity with serum compared with no serum", "setting": "[13]", "result": "nearly same as that when the horse serum was not added"}, {"measurement": "difference of antifungal activity with vs without horse serum", "setting": "[13]", "result": "1 - 2 dilution step(s)"}]}
